According to publication PMC3700763, “First human dose-escalation study with remogliflozin etabonate, a selective inhibitor of the sodium-glucose transporter 2 (SGLT2), in healthy subjects and in subjects with type 2 diabetes mellitus” (BMC Pharmacology & Toxicology, 2013):

Legend:
Format in all cases: in vivo, human
[1] = Fluid balance, healthy subjects; settings: mean (SD)
Description: Urine samples were collected at pre-dose, and over a series of intervals (0–2, 2–4, 4–6, 6–8, 8–12 and 12–24 h post-dose) for the analysis of creatinine, glucose and electrolytes (Na, K and Cl). All fluid intake was recorded, as well as urine volume, over the 24 hours before and after dosing in each treatment period. Urine was tested for protein on the first morning void of day -1 and 24 h after dosing.

[2] = Adverse events after single oral doses, T2DM subjects (Part B); settings: for At least one adverse event: n = 6
Description: (§1) This double-blind, randomized, placebo-controlled, single escalating-dose crossover study was conducted in two parts: Part A consisted of a randomized, dose-escalation in healthy subjects; Part B was of similar design, but conducted in subjects with T2DM and included an evaluation of pharmacodynamics using a 50 g oral glucose tolerance test (OGTT).
Six subjects with T2DM received two doses of remogliflozin etabonate and a placebo dose, in a randomized, dose escalating, crossover design, along with an oral glucose load on three study sessions separated by 7–14 days. Full PK and safety profiles were measured on Day 1 of each dosing period. The doses selected for this portion of the study, 50 mg and 500 mg, were based on data obtained in Part A. In each dosing period, subjects were assigned to active vs placebo in a 2:1 ratio.
(§2) All subjects were admitted to the unit two nights prior to receiving study drug to establish baseline safety parameters and fluid intake levels over a 36 h period. Subjects remained in the unit for at least 24 h after doses were administered for monitoring of clinical laboratory parameters exploratory biomarkers, vital signs, ECGs and adverse events. While confined to the clinical research unit, all subjects received meals standardized with respect to calories, fat, protein, carbohydrate, and sodium content; however, detailed dietary information was not captured in this study. In Part A, subjects were dosed following an overnight fast; lunch and dinner were provided at 4 and 10 h after dosing, respectively. Fifteen minutes after dosing in each treatment period in Part B, a fasting OGTT was performed using 50 g glucose (administered as 50 g Glucola™). A 50 g glucose load was chosen since the OGTT was being performed in subjects already known to have diabetes. The glucose drink was consumed by subjects within approximately 5 minutes. Blood samples for the measurement of glucose, insulin, and intact glucagon-like peptide 1 (GLP-1) were collected for 24 hours following dose administration. Provided that there were no safety or tolerability concerns, subjects were released from the clinic on day 2 of each treatment period until their return for the next treatment or follow-up period. Each subject was involved in the study for approximately 8 weeks (from screening to follow-up).

[3] = Adverse events after single oral doses, healthy subjects (Part A); settings: for Blood creatine phosphokinase increased (adverse events reported by >1 subject in total) / Diarrhea (drug-related adverse events) / Dizziness (drug-related adverse events) / Headache (adverse events reported by >1 subject in total) / Headache (drug-related adverse events) / Hot flush (drug-related adverse events) / At least one adverse event: healthy subjects; for At least one adverse event: n = 8
Description: as §1
Ten healthy subjects were evaluated in 5 study sessions, each separated by approximately 2 weeks. At each study session, subjects received either an oral dose of remogliflozin etabonate or placebo after an overnight fast. Remogliflozin etabonate doses were 20 mg, 50 mg, 150 mg, 500 mg and 1000 mg. Over the course of participation in the study, each subject received 4 of the 5 active remogliflozin etabonate doses and 1 dose of placebo (4:1 active to placebo ratio per treatment period). The available safety and PK results from each dosing period were evaluated before proceeding to the next dose level.
as §2

CCOC(=O)OC[C@H]1O[C@@H](Oc2nn(C(C)C)c(C)c2Cc2ccc(OC(C)C)cc2)[C@H](O)[C@@H](O)[C@@H]1O [Remogliflozin etabonate, remogliflozin etabonate]
Fluid balance (total fluid intake minus total urine volume) ([1]; 0–12 h post-dose, 20 mg): 243 (1161) mL | Fluid balance (total fluid intake minus total urine volume) ([1]; 0–12 h post-dose, 50 mg): -570 (582) mL | Fluid balance (total fluid intake minus total urine volume) ([1]; 0–12 h post-dose, 150 mg): -86 (909) mL | Fluid balance (total fluid intake minus total urine volume) ([1]; 0–12 h post-dose, 500 mg): -159 (531) mL | Fluid balance (total fluid intake minus total urine volume) ([1]; 0–12 h post-dose, 1000 mg): -273 (331) mL | Fluid balance (total fluid intake minus total urine volume) ([1]; 12–24 h post-dose, 20 mg): -581 (387) mL | Fluid balance (total fluid intake minus total urine volume) ([1]; 12–24 h post-dose, 50 mg): -551 (530) mL | Fluid balance (total fluid intake minus total urine volume) ([1]; 12–24 h post-dose, 150 mg): -564 (478) mL | Fluid balance (total fluid intake minus total urine volume) ([1]; 12–24 h post-dose, 500 mg): -424 (334) mL | Fluid balance (total fluid intake minus total urine volume) ([1]; 12–24 h post-dose, 1000 mg): -495(367) mL | Fluid balance (total fluid intake minus total urine volume) ([1]; -24 h to pre-dose (baseline before dosing), 20 mg period): -460 (1311) mL | Fluid balance (total fluid intake minus total urine volume) ([1]; -24 h to pre-dose (baseline before dosing), 50 mg period): -338 (525) mL | Fluid balance (total fluid intake minus total urine volume) ([1]; -24 h to pre-dose (baseline before dosing), 150 mg period): -512 (731) mL | Fluid balance (total fluid intake minus total urine volume) ([1]; -24 h to pre-dose (baseline before dosing), 500 mg period): -278 (1250) mL | Fluid balance (total fluid intake minus total urine volume) ([1]; -24 h to pre-dose (baseline before dosing), 1000 mg period): -126 (798) mL | Muscle cramp (adverse events reported by >1 subject in total) ([2]; 50 mg single oral dose): 1 (17) n (%) | Nausea (drug-related adverse events) ([2]; 50 mg single oral dose): 0 n (%) | Pain in extremity (drug-related adverse events) ([2]; 50 mg single oral dose): 0 n (%) | β2-microglobulin increased (adverse events reported by >1 subject in total) ([2]; 50 mg single oral dose): 0 n (%) | β2-microglobulin increased (drug-related adverse events) ([2]; 50 mg single oral dose): 0 n (%) | At least one adverse event ([2]; 50 mg single oral dose): 1 (17) n (%) | Muscle cramp (adverse events reported by >1 subject in total) ([2]; 500 mg single oral dose): 0 n (%) | Nausea (drug-related adverse events) ([2]; 500 mg single oral dose): 1 (17) n (%) | Pain in extremity (drug-related adverse events) ([2]; 500 mg single oral dose): 1 (17) n (%) | β2-microglobulin increased (adverse events reported by >1 subject in total) ([2]; 500 mg single oral dose): 2 (33) n (%) | β2-microglobulin increased (drug-related adverse events) ([2]; 500 mg single oral dose): 1 (17) n (%) | At least one adverse event ([2]; 500 mg single oral dose): 2 (33) n (%) | Tolerability ([3]; all subjects, single oral doses 20-1000 mg, no deaths, serious adverse events or withdrawals): generally well-tolerated | Blood creatine phosphokinase increased (adverse events reported by >1 subject in total) ([3]; 20 mg single oral dose): 0 n (%) | Diarrhea (drug-related adverse events) ([3]; 20 mg single oral dose): 1 (13) n (%) | Dizziness (drug-related adverse events) ([3]; 20 mg single oral dose): 0 n (%) | Headache (adverse events reported by >1 subject in total) ([3]; 20 mg single oral dose): 1 (13) n (%) | Headache (drug-related adverse events) ([3]; 20 mg single oral dose): 1 (13) n (%) | Hot flush (drug-related adverse events) ([3]; 20 mg single oral dose): 0 n (%) | At least one adverse event ([3]; 20 mg single oral dose): 2 (25) n (%) | Blood creatine phosphokinase increased (adverse events reported by >1 subject in total) ([3]; 50 mg single oral dose): 0 n (%) | Diarrhea (drug-related adverse events) ([3]; 50 mg single oral dose): 0 n (%) | Dizziness (drug-related adverse events) ([3]; 50 mg single oral dose): 0 n (%) | Headache (adverse events reported by >1 subject in total) ([3]; 50 mg single oral dose): 1 (13) n (%) | Headache (drug-related adverse events) ([3]; 50 mg single oral dose): 1 (13) n (%) | Hot flush (drug-related adverse events) ([3]; 50 mg single oral dose): 0 n (%) | At least one adverse event ([3]; 50 mg single oral dose): 3 (38) n (%) | Blood creatine phosphokinase increased (adverse events reported by >1 subject in total) ([3]; 150 mg single oral dose): 0 n (%) | Diarrhea (drug-related adverse events) ([3]; 150 mg single oral dose): 0 n (%) | Dizziness (drug-related adverse events) ([3]; 150 mg single oral dose): 0 n (%) | Headache (adverse events reported by >1 subject in total) ([3]; 150 mg single oral dose): 0 n (%) | Headache (drug-related adverse events) ([3]; 150 mg single oral dose): 0 n (%) | Hot flush (drug-related adverse events) ([3]; 150 mg single oral dose): 0 n (%) | At least one adverse event ([3]; 150 mg single oral dose): 1 (13) n (%) | Blood creatine phosphokinase increased (adverse events reported by >1 subject in total) ([3]; 500 mg single oral dose): 1 (13) n (%) | Diarrhea (drug-related adverse events) ([3]; 500 mg single oral dose): 0 n (%) | Dizziness (drug-related adverse events) ([3]; 500 mg single oral dose): 0 n (%) | Headache (adverse events reported by >1 subject in total) ([3]; 500 mg single oral dose): 2 (25) n (%) | Headache (drug-related adverse events) ([3]; 500 mg single oral dose): 0 n (%) | Hot flush (drug-related adverse events) ([3]; 500 mg single oral dose): 0 n (%) | At least one adverse event ([3]; 500 mg single oral dose): 3 (38) n (%) | Blood creatine phosphokinase increased (adverse events reported by >1 subject in total) ([3]; 1000 mg single oral dose): 0 n (%) | Diarrhea (drug-related adverse events) ([3]; 1000 mg single oral dose): 0 n (%) | Dizziness (drug-related adverse events) ([3]; 1000 mg single oral dose): 1 (13) n (%) | Headache (adverse events reported by >1 subject in total) ([3]; 1000 mg single oral dose): 1 (13) n (%) | Headache (drug-related adverse events) ([3]; 1000 mg single oral dose): 1 (13) n (%) | Hot flush (drug-related adverse events) ([3]; 1000 mg single oral dose): 1 (13) n (%) | At least one adverse event ([3]; 1000 mg single oral dose): 1 (13) n (%)
